In patent US6881719B2, “β-turn peptidomimetic cyclic compounds” (McGill University, priority 2000, dated 2005):
Several values for one entry are separate records, joined by “and”; a condition that tells them apart may be missing. Equal entries are not always repeated. No end group written: not given here.

Assays:
[1] = target: TrkA on primary rat embryonic neurons (DRG and septal cultures) (rat) (UniProt P35739); assay: cell-based or functional assay
[2] = target: human TrkC expressed on transfected NIH3T3 fibroblasts (human) (UniProt Q16288); assay: cell-based or functional assay
[3] = target: T1, HEK 293 cells expressing TrkB/TrkA IgG-C2 chimeric receptor (Homo sapiens, UniProt P04629+Q16620); assay: Cell survival (MTT), HEK 293-TrkB/TrkA IgG-C2 chimera; format: cell-based; conditions: HEK 293-TrkB/TrkA chimera, 72 hours;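 on % Protection: 100% equals survival with optimal NGF at 1 nM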
T1 construct: The IgG-C2 domain of human TrkA was generated using unique restriction sites; expressed in transfected cells
Source text: The IgG-C2 domain of human TrkA was generated using unique restriction sites in the primers to allow exchange with the corresponding rat TrkB domain. The chimeric receptors were constructed by subcloning the human TrkA IgG-C2 domain into the corresponding restriction sites of the rat trkB cDNA reported in a previous work (Perez et al., 1995). Chimeric constructs were confirmed by sequencing, and were cloned into the pCDNA3 expression vector that contains a selection gene providing resistance to neomycin (G418, GIBCO). HEK293 cells were transfected using the lipofectamine plus method (GIBCO), selected with neomycin (0.5 mg/ml) and at least 3 independent subclones were obtained by limiting dilution techniques (293-TrkB/A-IgC2 chimera).
(§1) Cell lines: 5,000 cells/well in protein-free media (PFHM-II, GIBCO, Toronto) containing 0.2% bovine serum albumin (BSA) (Crystalline fraction V, Sigma, St. Louis, Mo.) were seeded in 96 well plates (Falcon, Mississauga, Ontario). The cultures were untreated, or treated with the indicated test or control ligands. Cell viability was quantitated using the MTT assay after 56-72 hours of culture. […] The OD of untreated cells were subtracted.

[4] = target: T2, p75 NGF receptor subunit (Rattus norvegicus, UniProt P07174); assay: FACScan competition of anti-p75 mAb MC192 binding on 4-3.6 cells
T2 construct: B104 rat neuroblastomas express p75 receptors; endogenous in cells
Source text: (§2) The 4-3.6 cells are B104 cells stably transfected with human trkA cDNA, and express equal levels of p75 and TrkA (TrkA+ p75+). For screening agents that activate or antagonize TrkC receptors, NIH3T3 fibroblasts were stably transfected with human TrkC cDNA. These cells respond to the ligand NT-3. For screening agents that activate or antagonize TrkA receptors, NIH3T3 fibroblasts were stably transfected with human TrkA cDNA. These cells respond to the ligand NGF.
(§3) FACScan binding assays: 4-3.6 cells (2×10^5) in FACScan binding buffer (PBS, 0.5% BSA, and 0.1% NaN3) were immunostained as described (Saragovi et al., 1998). Saturating anti-TrkA mAb 5C3, or anti-p75 mAb MC192, or control non-binding IgGs were added to cells for 1 hour at 4° C., in the presence or absence of D3 as competitor. Excess primary antibody was washed off, and cells were immunostained with fluorescinated goat-anti-mouse IgG secondary antibody. Cells were acquired on a FACScan and mean channel fluorescence of bell-shaped histograms were analyzed using the LYSIS II program.

[5] = target: T3, cell surface TrkA (Homo sapiens, UniProt P04629); assay: FACScan competition of mAb 5C3 binding on 4-3.6 cells; conditions: mAb 1 nM; competitor 40 μM
T3 construct: expressed in transfected cells
Source text: as §2, §3

[6] = tested on: 4-3.6 cells (p75+TrkA+); assay: Cell survival (MTT), 4-3.6 cells; format: cell-based, rat; conditions: 72 hours;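 on % Protection: 100% equals survival with optimal NGF at 1 nM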
Source text: as §2
as §1, with “subtracted. The higher optical density of untreated primary cultures is likely due to cellular heterogeneity and to endogenous production of limiting amounts of growth factors.” for “subtracted.”

[7] = tested on: embryonic rat DRG primary neuronal cultures; assay: Cell survival (MTT), primary DRG cultures; format: cell-based; conditions: compound 10 μM alone; 8 days;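 on % Protection: 100% equals survival with optimal NGF at 1 nM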
Experimental: Fetal rat DRG primary cultures were established from Sprague Dawley day 17 rat embryos. All ganglia were dissected and dissociated first enzymatically with trypsin and then mechanically. Dissociated cells were cultured (10^5 cells/well) in 96 well plates pre-coated with collagen, and grown for a total of 8 days in Neuro Basal Medium containing N2 supplement (GIBCO, Toronto), antibiotics, and L-glutamine. These DRG cultures are ˜85% TrkA-expressing and are heavily dependent on TrkA signals for survival.
Primary DRG cultures: After a total of 8 days of culture with the indicated test or control ligands, cell survival were studied using the 3(4,5-Dimethylthiazolyl-2)-2,5-diphenyl tetrazolium bromide colorimetric (MTT) assay, and by microscopic observation.
as §1, with “subtracted. The higher optical density of untreated primary cultures is likely due to cellular heterogeneity and to endogenous production of limiting amounts of growth factors.” for “subtracted.”

[8] = tested on: septal neuronal cultures; assay: ChAT activity in septal neuronal cultures; format: cell-based, rat; conditions: compound 20 μM alone; day 8
Experimental: Cell cultures were established from the septal area of 17-day-old rat embryos. In brief, tissue was incubated in PBS containing trypsin and DNase. Tissue pieces then were mechanically dissociated. After centrifugation, the pellet was suspended in Leibovitz's L-15 medium. Cells were plated onto 96-multiwell NUNC dishes (10^5 cells/well) coated with poly-D-lysine (5 μg/ml). Pure cultures of septal neurons were treated 1 day after plating. Drugs, prepared in medium, were added directly to the cells without changing the initial medium. The incubation continued for 8 days, at which time ChAT activity was evaluated.
At day 8 of culture, the medium was aspirated, and ice-cold lysis buffer (10 mM sodium phosphate, pH 7.4/0.1% TritonX-100—Trade-mark) was added. ChAT activity assays were performed directly in the wells using Fonnum's method (Fonnum, 1975).

[9] = target: T4, TrkA-ECD (Homo sapiens, UniProt P04629); assay: ELISA competition of mAb 5C3 binding to immobilized TrkA-ECD; conditions: mAb 5C3 2 nM; competitor 40 μM
T4 construct: pure soluble TrkA extracellular domain (TrkA-ECD) produced in baculovirus; made in house
Experimental: Direct binding studies: were done as described (Saragovi et al., 1998) using 6 ng/well of recombinant baculovirus TrkA-extracellular domain protein (TrkA-ECD) or control bovine serum albumin (BSA, Fraction V, Boehringer Mannheim) immobilized onto 96-well microtest plates. Wells were blocked with binding buffer (BB: PBS with 1% BSA) for 1 hour. Then, 50 ng/well of biotinylated D3 were added as primary reagent in BB for 40 min in the absence or presence of excess non-biotinylated D3 as competitor. Wells were washed 5 times with BB, and horseradish peroxidase (HRP)-coupled avidin (Sigma) was added as secondary reagent for 30 min. Plates were washed in BB, and peroxidase activity was determined colorimetrically using 2,2-azinobis (3-ethylbenzthiazoline sulfonic acid) (ABTS, Sigma). The optical density (OD) was measured at 414 nm in a Microplate reader (Bio-Rad). Assays were repeated at least three times, n=4.
Binding Competition: studies were as described for direct binding assays to TrkA-ECD, except that as primary reagent 50 ng anti-TrkA mAb 5C3/well were added in BB, in the presence or absence of D3 or controls as competitors as described (Saragovi et al., 1998). Wells were washed 5 times with BB, and HRP-coupled goat anti-mouse was added as secondary reagent for 30 min. Plates were washed in BB, and peroxidase activity were determined. Assays were repeated at least three times, n=4.

[10] = target: T5, NIH3T3 fibroblasts expressing TrkA (Homo sapiens, UniProt P04629); assay: Cell survival (MTT), NIH-TrkA; format: cell-based; conditions: 72 hours;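 further: 100% equals survival with optimal NGF at 1 nM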
T5 construct: expressed in transfected cells; host or cells: NIH3T3 fibroblasts
Source text: The 4-3.6 cells are B104 cells stably transfected with human trkA cDNA, and express equal levels of p75 and TrkA (TrkA+ p75+). For screening agents that activate or antagonize TrkC receptors, NIH3T3 fibroblasts were stably transfected with human TrkC cDNA. […] For screening agents that activate or antagonize TrkA receptors, NIH3T3 fibroblasts were stably transfected with human TrkA cDNA.
as §1

[11] = tested on: wild type NIH3T3 fibroblasts; assay: Cell survival (MTT), NIH wt; format: cell-based; conditions: 72 hours
Source text: as §2
as §1, with “subtracted. The higher optical density of untreated primary cultures is likely due to cellular heterogeneity and to endogenous production of limiting amounts of growth factors.” for “subtracted.”

[12] = target: T6, NIH3T3 fibroblasts expressing TrkC (Homo sapiens, UniProt Q16288); assay: Cell survival (MTT), NIH-TrkC; format: cell-based; conditions: 72 hours
T6 construct: expressed in transfected cells; host or cells: NIH3T3 fibroblasts
Source text: as §2
as §1, with “subtracted. The higher optical density of untreated primary cultures is likely due to cellular heterogeneity and to endogenous production of limiting amounts of growth factors.” for “subtracted.”

[13] = target: human TrkA expressed on transfected cells (4-3.6 cells; NIH3T3-TrkA cells) (human) (UniProt P04629); assay: FACScan, 4-3.6 cells (p75+ TrkA+), avidin-FITC
[14] = target: TrkA on primary rat embryonic neurons (DRG and septal cultures) (rat, UniProt P35739 33-799); assay: cell-based or functional assay
Sequence of TrkA on primary rat embryonic neurons (DRG and septal cultures) (P35739 33-799): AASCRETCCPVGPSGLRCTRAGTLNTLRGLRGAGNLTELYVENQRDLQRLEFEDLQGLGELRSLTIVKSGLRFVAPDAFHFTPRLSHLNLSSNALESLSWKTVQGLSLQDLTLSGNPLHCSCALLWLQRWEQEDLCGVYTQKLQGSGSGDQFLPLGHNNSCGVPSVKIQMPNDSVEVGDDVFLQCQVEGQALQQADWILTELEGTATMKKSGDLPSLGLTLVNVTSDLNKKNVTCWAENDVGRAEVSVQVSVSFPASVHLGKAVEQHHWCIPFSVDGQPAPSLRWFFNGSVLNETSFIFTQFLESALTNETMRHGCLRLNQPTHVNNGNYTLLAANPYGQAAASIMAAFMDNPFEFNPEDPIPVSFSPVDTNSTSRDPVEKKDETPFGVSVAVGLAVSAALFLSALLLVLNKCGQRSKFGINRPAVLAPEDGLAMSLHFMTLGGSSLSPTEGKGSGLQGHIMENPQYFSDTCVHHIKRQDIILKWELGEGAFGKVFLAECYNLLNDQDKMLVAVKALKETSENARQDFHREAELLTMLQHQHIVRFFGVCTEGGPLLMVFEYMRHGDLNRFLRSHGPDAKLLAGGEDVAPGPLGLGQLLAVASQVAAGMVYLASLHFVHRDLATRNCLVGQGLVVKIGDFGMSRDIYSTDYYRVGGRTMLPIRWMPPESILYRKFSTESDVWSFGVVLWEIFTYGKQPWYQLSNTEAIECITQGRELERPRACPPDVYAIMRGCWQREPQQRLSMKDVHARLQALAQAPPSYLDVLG

T6 sequence (Q16288 32-839): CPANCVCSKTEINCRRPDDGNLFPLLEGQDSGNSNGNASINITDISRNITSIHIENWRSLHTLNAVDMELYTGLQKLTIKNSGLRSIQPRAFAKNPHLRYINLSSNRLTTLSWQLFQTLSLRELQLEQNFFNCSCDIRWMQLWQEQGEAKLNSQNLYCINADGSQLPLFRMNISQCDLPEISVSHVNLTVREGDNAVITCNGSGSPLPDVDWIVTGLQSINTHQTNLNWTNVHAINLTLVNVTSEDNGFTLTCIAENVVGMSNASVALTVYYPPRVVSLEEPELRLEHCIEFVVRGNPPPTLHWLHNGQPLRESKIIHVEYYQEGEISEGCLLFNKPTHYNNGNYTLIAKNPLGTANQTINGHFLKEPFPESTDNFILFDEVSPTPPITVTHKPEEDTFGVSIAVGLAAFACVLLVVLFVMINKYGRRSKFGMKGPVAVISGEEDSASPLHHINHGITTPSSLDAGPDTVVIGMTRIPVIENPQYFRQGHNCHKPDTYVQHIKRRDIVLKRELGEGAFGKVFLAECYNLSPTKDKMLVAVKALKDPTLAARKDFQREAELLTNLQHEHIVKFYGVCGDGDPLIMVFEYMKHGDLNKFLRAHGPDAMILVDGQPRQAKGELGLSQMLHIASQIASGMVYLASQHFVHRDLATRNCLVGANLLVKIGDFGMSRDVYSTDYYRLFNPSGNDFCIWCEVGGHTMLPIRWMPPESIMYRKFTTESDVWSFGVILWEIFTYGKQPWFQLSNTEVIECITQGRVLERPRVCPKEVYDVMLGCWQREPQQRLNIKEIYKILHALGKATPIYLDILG
T1 sequence (P04629 299-365 limits assumed, change not shown, one chain of several): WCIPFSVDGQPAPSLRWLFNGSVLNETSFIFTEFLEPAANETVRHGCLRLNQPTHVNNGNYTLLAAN
Sequence of TrkA on primary rat embryonic neurons (DRG and septal cultures) (rat) (P35739 33-799): as the sequence (P35739 33-799) above
T5 sequence (P04629 33-796): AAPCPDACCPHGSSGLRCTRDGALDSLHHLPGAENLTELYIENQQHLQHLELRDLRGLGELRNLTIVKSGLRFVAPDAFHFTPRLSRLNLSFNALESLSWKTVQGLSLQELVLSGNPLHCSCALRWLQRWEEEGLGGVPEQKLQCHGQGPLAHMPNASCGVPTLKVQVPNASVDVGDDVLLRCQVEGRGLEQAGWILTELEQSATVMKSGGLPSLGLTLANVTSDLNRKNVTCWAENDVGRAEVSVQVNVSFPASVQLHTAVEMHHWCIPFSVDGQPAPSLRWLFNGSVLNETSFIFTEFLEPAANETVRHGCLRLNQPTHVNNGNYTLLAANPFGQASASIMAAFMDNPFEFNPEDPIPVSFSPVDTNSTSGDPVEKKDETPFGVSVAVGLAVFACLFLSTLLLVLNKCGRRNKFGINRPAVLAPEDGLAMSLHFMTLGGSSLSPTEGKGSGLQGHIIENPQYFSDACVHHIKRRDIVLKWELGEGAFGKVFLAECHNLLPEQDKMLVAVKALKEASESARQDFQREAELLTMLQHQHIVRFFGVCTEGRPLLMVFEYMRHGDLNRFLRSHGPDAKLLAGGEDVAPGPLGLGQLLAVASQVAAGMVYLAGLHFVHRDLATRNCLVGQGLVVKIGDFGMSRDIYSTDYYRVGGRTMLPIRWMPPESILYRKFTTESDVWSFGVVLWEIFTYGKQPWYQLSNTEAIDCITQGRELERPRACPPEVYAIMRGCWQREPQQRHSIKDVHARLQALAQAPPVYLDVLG
Sequence of nerve growth factor (NGF) (ligand) (P01138 122-241): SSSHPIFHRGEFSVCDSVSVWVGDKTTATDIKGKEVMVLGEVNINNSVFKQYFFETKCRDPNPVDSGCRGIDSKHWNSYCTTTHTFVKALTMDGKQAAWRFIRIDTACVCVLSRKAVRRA
Sequence of human TrkC expressed on transfected NIH3T3 fibroblasts (human) (Q16288 32-839): as the sequence (Q16288 32-839) above
T4 sequence (P04629 33-423 limits assumed): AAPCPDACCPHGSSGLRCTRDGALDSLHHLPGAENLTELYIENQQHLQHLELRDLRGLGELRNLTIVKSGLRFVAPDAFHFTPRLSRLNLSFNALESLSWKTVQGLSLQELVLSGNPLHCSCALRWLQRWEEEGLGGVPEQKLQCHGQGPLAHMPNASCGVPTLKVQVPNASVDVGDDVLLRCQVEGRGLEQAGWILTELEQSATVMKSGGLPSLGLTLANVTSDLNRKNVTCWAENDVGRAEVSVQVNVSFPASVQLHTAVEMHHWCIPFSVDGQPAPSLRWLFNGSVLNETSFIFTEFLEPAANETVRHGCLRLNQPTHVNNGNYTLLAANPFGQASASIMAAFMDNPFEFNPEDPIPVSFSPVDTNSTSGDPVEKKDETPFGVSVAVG
T2 sequence (P07174 30-425): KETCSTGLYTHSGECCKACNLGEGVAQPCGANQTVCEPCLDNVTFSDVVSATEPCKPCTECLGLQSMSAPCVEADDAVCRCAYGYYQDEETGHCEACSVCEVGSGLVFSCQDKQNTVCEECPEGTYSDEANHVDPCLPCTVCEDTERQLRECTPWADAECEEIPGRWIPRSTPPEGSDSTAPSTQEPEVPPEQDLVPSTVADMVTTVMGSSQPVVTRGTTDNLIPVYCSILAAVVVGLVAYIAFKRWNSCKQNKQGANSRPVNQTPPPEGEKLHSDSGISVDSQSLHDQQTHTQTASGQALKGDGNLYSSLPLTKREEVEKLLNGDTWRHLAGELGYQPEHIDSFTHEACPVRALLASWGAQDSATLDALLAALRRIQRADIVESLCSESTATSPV
T3 sequence (P04629 33-796): as the sequence (P04629 33-796) above
Sequence of human TrkA expressed on transfected cells (4-3.6 cells; NIH3T3-TrkA cells) (human) (P04629 33-796): as above

## nerve growth factor (NGF) (ligand)
[1]
  % Protection (MTT, rat DRG neurons), NGF 20 pM: 9%
  % Protection (MTT, rat DRG neurons), NGF 500 pM: 68%
  ChAT Activity (rat septal neurons), 10 pM NGF (pmol Ach/min/well): 0.42
  ChAT Activity (rat septal neurons), 400 pM NGF (pmol Ach/min/well): 0.72
  Optical Density (MTT survival, rat DRG neurons), NGF 20 pM: 316 OD
  Optical Density (MTT survival, rat DRG neurons), NGF 500 pM: 0.535 OD
  Optical Density (MTT survival, rat DRG neurons), NGF 1 nM: 823 OD
[2]
  % Protection (MTT, NIH-TrkC), 10 pM NGF: 2%
  % Protection (MTT, NIH-TrkC), 1 nM NGF: 5%

## NCCCC[C@@H]1NC(=O)[C@H](CCC(=O)O)NC(=O)c2cc([N+](=O)[O-])ccc2SCC(C(N)=O)NC1=O (stereo partly shown) [C59, EKCys]
[3]; compound 10 μM + 10 pM NGF
  % Protection: 21 ± 6%
  Optical Density: 90 ± 9
[3]; compound 10 μM alone
  % Protection: −1 ± 2%
  Optical Density: 30 ± 7
[4]
  inhibition of mAb MC192 binding: did not inhibit
[5]
  % Maximal binding of mAb 5C3: 97 ± 6%
[6]; compound 10 μM + 10 pM NGF
  % Protection: 41 ± 4%
  Optical Density: 209 ± 17
[6]; compound 10 μM alone
  % Protection: 2 ± 1%
  Optical Density: 76 ± 4
[7]
  % Protection: 0 ± 1%
  Optical Density: 271 ± 8
[8]
  ChAT Activity: 0.30 ± 0.05 pmol Ach/min/well
  Fold Increase (ChAT activity): 1
[9]
  % Binding of mAb 5C3 to TrkA-ECD: 96 ± 9%

## CC(O)[C@@H]1NC(=O)[C@H](CCCCN)NC(=O)c2cc([N+](=O)[O-])cc(I)c2OCCC(C(N)=O)NC1=O (stereo partly shown) [P27]
[10]; agent 10 μM + 10 pM NT-3
  NIH-TrkA % Protection: 4 ± 1%
[10]; agent 10 μM alone
  NIH-TrkA % Protection: 5 ± 2%
[11]; agent 10 μM + 10 pM NT-3
  NIH wt % Protection: 5 ± 4%
[11]; agent 10 μM alone
  NIH wt % Protection: −2 ± 4%
[12]; agent 10 μM + 10 pM NT-3
  NIH-TrkC % Protection: 62 ± 6%
[12]; agent 10 μM alone
  NIH-TrkC % Protection: 13 ± 3%

## CC(O)[C@@H]1NC(=O)c2cc([N+](=O)[O-])cc(I)c2NCCC(C(N)=O)NC(=O)CNC1=O (stereo partly shown) [P42]
[10]; agent 10 μM + 10 pM NGF
  NIH-TrkA % Protection: 9 ± 4%
[10]; agent 10 μM + 1 nM NGF
  NIH-TrkA % Protection: 68% and 68 ± 5%
[10]; agent 10 μM alone
  NIH-TrkA % Protection: 5 ± 2%
[11]; agent 10 μM alone
  NIH wt % Protection: 0 ± 3%

## CCC(C)[C@@H]1NC(=O)C(CC(=O)O)NC(=O)c2cc([N+](=O)[O-])cc(I)c2OCCC(C(N)=O)NC1=O (stereo partly shown) [P23]
[10]; agent 10 μM + 10 pM NGF
  NIH-TrkA % Protection: 52 ± 3%
[10]; agent 10 μM + 10 pM NT-3
  NIH-TrkA % Protection: 21 ± 3%
[10]; agent 10 μM alone
  NIH-TrkA % Protection: 15 ± 2%
[11]; agent 10 μM + 10 pM NGF
  NIH wt % Protection: 1 ± 3%
[11]; agent 10 μM + 10 pM NT-3
  NIH wt % Protection: 1 ± 3%
[11]; agent 10 μM alone
  NIH wt % Protection: 0 ± 3%
[12]; agent 10 μM + 10 pM NGF
  NIH-TrkC % Protection: 11 ± 5%
[12]; agent 10 μM + 10 pM NT-3
  NIH-TrkC % Protection: 51 ± 7%
[12]; agent 10 μM alone
  NIH-TrkC % Protection: 8 ± 2%

## control-biotin (an inactive biotinylated peptide)
[13]
  MCF: 10 MCF

## NT-3: Neurotrophin-3, prefers binding to TrkC receptors
[10]; 10 pM NT-3
  NIH-TrkA % Protection: 3 ± 2%
[10]; 1 nM NT-3
  NIH-TrkA % Protection: 17 ± 3%
[11]; 10 pM NT-3
  NIH wt % Protection: 1 ± 4%
[11]; 1 nM NT-3
  NIH wt % Protection: −2 ± 5%
[12]; 10 pM NT-3
  NIH-TrkC % Protection: 29±1%
[12]; 1 nM NT-3
  NIH-TrkC % Protection: 100 ± 2%

## NC(=O)C[C@@H]1NC(=O)[C@H](CCC(=O)O)NC(=O)c2cc([N+](=O)[O-])cc(I)c2NCCC(C(N)=O)NC1=O (stereo partly shown) [P43]
[10]; agent 10 μM + 10 pM NGF
  NIH-TrkA % Protection: 12 ± 3%
[10]; agent 10 μM + 1 nM NGF
  NIH-TrkA % Protection: 55% and 55 ± 7%
[10]; agent 10 μM alone
  NIH-TrkA % Protection: 4 ± 3%
[11]; agent 10 μM alone
  NIH wt % Protection: 2 ± 4%

## Glu-Lys-Cys (also: further groups not given here) [C59 (EKCys), inactive analog of D3]
[14]
  ChAT Fold Increase, 20 µM C59 control: 1 fold
